# Experimental data from patent US20260091050A1, “ADVANTAGEOUS ANTI-HCV COMBINATION THERAPY” (Atea Pharmaceuticals, Inc., priority 2021, published 2026).
# Several values for one entry are separate records, joined by “and”; a condition that tells them apart may be missing. Equal values may be shown once.
# Columns and labels:
# GT3 HCV = assay: 600 mg QD for 7 days in non-cirrhotic GT3 HCV-infected patients (Part D); type: in vivo, human
# Method: (§1) Doses were administered as the Compound 1-A salt base. The free base Compound 1 equivalent is often given in parenthesis.
# (§2) Part C was a randomized, double-blind, placebo-controlled MAD study divided into three cohorts. […] The dose escalation only proceeded following satisfactory review of the data.
# (§3) HCV-infected patients were treatment-naïve with HCV RNA ≥5 log 10 IU/mL. HCV RNA was quantified using COBAS® AmpliPrep TaqMAN® v2.0 with LLQ of 15 IU/mL. Plasma drug levels were measured using LC-MS/MS. […] Mean ages of enrolled subjects were 44, 39, and 56 years in the non-cirrhotic GT1b 600 mg dose cohort, non-cirrhotic GT3 cohort, and the cirrhotic cohort, respectively.
# [1] = Stability under refrigerator conditions (5 ± 3° C.) of Compound 1-A over 9 months; type: physicochemical
# Method: Three conditions were tested: accelerated stability (40±2° C./[…]) over a 6-month time period, ambient stability (25±2° C./[…]) over a 9-month period, and stability under refrigerator conditions (5±3° C.) over a 9-month time period. The results for accelerated stability, ambient stability, and refrigerator conditions are shown in Table 23, Table 24, and Table 25, respectively.
# GT1 HCV = assay: Multiple dose study, 7 days QD, non-cirrhotic GT1 HCV-infected patients (Part C); type: in vivo, human
# Method: as §1, §2, §3
# [2] = 600 mg of Compound 1-A, GT3, non-cirrhotic (n = 6)
# [3] = 600 mg of Compound 1-A, GT1, non-cirrhotic (n = 6)
compound,measurement,setting,value
"CNc1nc(N)nc2c1ncn2[C@@H]1O[C@H](CO[P@@](=O)(N[C@@H](C)C(=O)OC(C)C)Oc2ccccc2)[C@@H](O)[C@@]1(C)F [Compound 1-A, isopropyl ((S)-(((2R,3R,4R,5R)-5-(2-amino-6-(methylamino)-9H-purin-9-yl)-4-fluoro-3-hydroxy-4-methyltetrahydrofuran-2-yl)methoxy) (phenoxy)phosphoryl)-L-alaninate hemisulfate]",mean maximum HCV RNA reduction,"GT3 HCV; 600 mg QD for 7 days, non-cirrhotic GT3",4.6 log10 IU/mL and 4.5 log10 IU/mL
same,Mean Max Reduction,GT3 HCV; [2],4.5 log10 IU/mL
same,Mean Reduction After 24 hours,GT3 HCV; [2],2.4 log10 IU/mL
same,HCV RNA < LOQ (15 IU/mL),"GT3 HCV; 600 mg of Compound 1-A, GT3, non-cirrhotic (n = 6), subjects/total",1/6
same,mean HCV RNA reduction,"GT3 HCV; after the first dose of 600 mg, non-cirrhotic GT3",2.4 log10 IU/mL
same,Appearance,"[1]; 5 ± 3° C., 0 month",White
same,Assay,"[1]; 5 ± 3° C., 0 month",98.8%
same,IR,"[1]; 5 ± 3° C., 0 month",correspond
same,Related Substance 1 Any other single impurity,"[1]; 5 ± 3° C., 0 month",0.01%
same,Related Substance 1 Total Impurities,"[1]; 5 ± 3° C., 0 month",0.01%
same,Water,"[1]; 5 ± 3° C., 0 month",0.45%
same,Appearance,"[1]; 5 ± 3° C., 1st month",White
same,Assay,"[1]; 5 ± 3° C., 1st month",101.1%
same,Related Substance 1 Any other single impurity,"[1]; 5 ± 3° C., 1st month",0.01%
same,Related Substance 1 Total Impurities,"[1]; 5 ± 3° C., 1st month",0.01%
same,Water,"[1]; 5 ± 3° C., 1st month",0.19%
same,Appearance,"[1]; 5 ± 3° C., 3rd month",White
same,Assay,"[1]; 5 ± 3° C., 3rd month",100.2%
same,IR,"[1]; 5 ± 3° C., 3rd month",correspond
same,Related Substance 1 Any other single impurity,"[1]; 5 ± 3° C., 3rd month",0.01%
same,Related Substance 1 Impurity B,"[1]; 5 ± 3° C., 3rd month",0.01%
same,Related Substance 1 Total Impurities,"[1]; 5 ± 3° C., 3rd month",0.03%
same,Water,"[1]; 5 ± 3° C., 3rd month",0.32%
same,Appearance,"[1]; 5 ± 3° C., 6th month",White
same,Assay,"[1]; 5 ± 3° C., 6th month",98.6%
same,IR,"[1]; 5 ± 3° C., 6th month",correspond
same,Related Substance 1 Any other single impurity,"[1]; 5 ± 3° C., 6th month",0.01%
same,Related Substance 1 Total Impurities,"[1]; 5 ± 3° C., 6th month",0.03%
same,Water,"[1]; 5 ± 3° C., 6th month",0.42%
same,Appearance,"[1]; 5 ± 3° C., 9th month",Off-white
same,Assay,"[1]; 5 ± 3° C., 9th month",101.4%
same,IR,"[1]; 5 ± 3° C., 9th month",correspond
same,Related Substance 1 Any other single impurity,"[1]; 5 ± 3° C., 9th month",0.01%
same,Related Substance 1 Total Impurities,"[1]; 5 ± 3° C., 9th month",0.01%
same,Water,"[1]; 5 ± 3° C., 9th month",0.32%
same,total impurities of related substance 1,[1]; after 9 months,0.0100
same,water content,[1]; after 9 months,0.3200
same,Chemical stability (conclusion),[1]; refrigerator conditions,very chemically stable
same,subjects achieving HCV RNA <LOQ,"GT1 HCV; 600 mg QD, non-cirrhotic GT1b, LOQ=15 IU/mL",50%
same,Mean Max Reduction,GT1 HCV; [3],4.4 log10 IU/mL
same,Mean Reduction After 24 hours,GT1 HCV; [3],2.1 log10 IU/mL
same,HCV RNA < LOQ (15 IU/mL),"GT1 HCV; 600 mg of Compound 1-A, GT1, non-cirrhotic (n = 6), subjects/total",3/6
